In patent US20230320994A1, “FUNCTIONAL IONIZABLE PHOSPHOLIPIDS” (The Board of Regents of The University of Texas System, priority 2020, published 2023):

Test system: C57BL/6 mice
Experiment: In vivo tolerability: kidney and liver function markers
Details: 24 hours post injection, compared with PBS
Description: 10A1P16-MDOA (spleen specific) iPLNPs were administrated intravenously (IV) to C57BL/6 mice (0.25 mg kg−1). Lipopolysaccharide (LPS, 5 mg kg−1, IP) was used as the positive control and PBS (IV) was examined as the negative control. 24 hours post injection, kidney function (BUN and CREA) and liver function (ALT and AST) were evaluated. […] Data are presented as mean±s.d. (n=3 biologically independent mice). Statistical significance was analyzed by the two-tailed unpaired t-test: ****, P<0.0001; ***, P<0.001; **, P<0.01; *, P<0.05.

Lipopolysaccharide [LPS] was tested, and the “kidney function (BUN and CREA) and liver function (ALT and AST)” value was “severe kidney and liver injury”.
